Patent publication US20230390323A1, “SPRAYABLE ANTIVIRAL FORMULATION” (priority 2020, published 2023)

Test system: cells
Experiment: Cell compliance with the spray formulations
Format: cell-based
Protocol: A study was undertaken to determine cell compliance with the spray formulations over a 48 hour testing period. […] Dose-response was linear (R^2=0.96 and 0.97 for gellan and lambda-carrageenan, respectively), with reduced cell death as the systems became increasing more dilute.

Substance: gellan
- Reduction in the number of living cells: 2 fold
